Test system: 628569-122-R-J1-PDC complex spheroid viability
Experiment: Anticancer human tumor 628569-122-R-J1-PDC patient-derived head and neck squamous carcinoma cell line growth inhibition [CLK]
Details: for IC50: curve of first compound; for viability, T/C: stronger effect = lower value
Description: A high-throughput screen of multi-cell type tumor spheroids was designed to identify active combinations of […] and targeted small molecules. Complex spheroids include a stromal component modeled by human endothelial cells (HUVEC) and fibroblasts modeled by human mesenchymal stem cells (MSCs). The concentration ranges selected for each drug and investigational agent were based upon clinically achievable concentrations if the clinical Cmax of the agent was known.
Compounds. The drugs and investigational agents: cirtuvivint (SM08502; NSC835563), CC-671 (NSC850746), vemurafenib (NSC761431), tapotoclax (NSC804041), sotorasib (NSC818433), adagrasib (NSC831453), MRTX-1133 (NSC836407), BAY2416964 (NSC825713), copanlisib (NSC816437), inavolisib (NSC800729), abemaciclib (NSC768073), osimertinib (NSC779217), entinostat (NSC756642), eltanexor (KPT-8602, NSC794443), venetoclax (NSC766270), ceralasertib (NSC777638), bortezomib (NSC756655), olaparib (NSC753686), talazoparib (NSC767125), alisertib (NSC759677), peposertib (NSC802822), gemcitabine (NSC613327), 5-fluorouracil (NSC19893), SN-38 (NSC673596), oxaliplatin (NSC266046), paclitaxel (NSC125973), and doxorubicin (NSC123127), were obtained from the National Cancer Institute (NCI) Developmental Therapeutics Program Chemical Repository. The FDA-approved anticancer drug set is available from the Developmental Therapeutics Program at https://dtp.cancer.gov/organization/dscb/obtaining/available plates.htm. […] The stock solutions were prepared in dimethyl sulfoxide (DMSO, Sigma-Aldrich, St. Louis, MO, cat. D2650), except for the platinum complexes which were prepared in saline (Quality Biological, Gaithersburg, MD, cat. 114-055-101), at 800-fold the tested concentration and stored at -70 degrees C prior to their use. All drugs and investigational agents were tested over a range starting from a high concentration at or near the clinical Cmax and decreasing in half-log increments. If the clinical Cmax for an agent had not been determined, the highest concentration tested was 10 microM.
Cell Culture. All cells were maintained in an incubator at 37 degrees C and 5% CO2 with 95% humidity. The PDC lines were cultured according to standard operating procedures established by the NCI PDMR. Briefly, all PDCs were thawed and cultured in Matrigel-coated flasks prepared with a working solution of 1X Ham's F-12 nutrient mix, without supplementation (Invitrogen, Waltham, MA, cat. 11765054), 100 U/mL penicillin-streptomycin (Invitrogen, cat. 15140122), and 2.5% Matrigel (Corning Inc., Corning, NY, cat. 354248) for the first three passages. The 947758-054-R-J2-PDC line was cultured in 6B/Colon 1A media, which includes advanced DMEM/F-12 (Thermo Fisher Scientific, cat. 12634028), 10 mM HEPES (Thermo Fisher Scientific, cat. 15630080), 1X GlutaMAX supplement (Thermo Fisher Scientific, cat. 35050061), 0.1 mg/mL primocin (InvivoGen, cat. ant-pm-2), 10% defined fetal bovine serum, heat inactivated (HyClone Laboratories Inc., cat. SH30070.03HI), 1.25 mM N-Acetyl-L-cysteine (Sigma-Aldrich, cat. A9165), 10 mM nicotinamide (Sigma-Aldrich, cat. N0636), 1X B-27 supplement (Thermo Fisher Scientific, cat. 17504044), 1X N-2 supplement (Thermo Fisher Scientific, cat. 17502048), and 10 microM Y-27632 dihydrochloride (Tocris Bioscience, cat. 1254). The 876862-298-R-J1-PDC was cultured in 6E media, which includes all 6B/Colon 1A media components plus 50% L-WRN conditioned media (ATCC, cat. CRL-3276), 50 ng/mL recombinant human EGF recombinant protein (hEGF; Thermo Fisher Scientific, cat. PHG0311), 10 ng/mL recombinant human fibroblast growth factor 10 (hGFG-10; PeproTech, cat. 100-26), 1 ng/mL recombinant human fibroblast growth factor 2 (hFGF-2; PeproTech, cat. 100-18B), and 1 µM prostaglandin E2 (PGE2; Tocris, cat. 2296). The 227483-062-R1-J1-PDC line was cultured in Panc media, containing all 6E components except hFGF-2, with the addition of 500 nM SB-431542 (Selleckchem, cat. S1067) and 10 nM gastrin (Tocris, cat. 3006). […]

[1] = second compound 0.0316 µM, first compound 0.0316 µM
[2] = second compound 0.0316 µM, first compound 0.1 µM
[3] = second compound 0.0316 µM, first compound 0.316 µM
[4] = second compound 0.0316 µM, first compound 1 µM
[5] = second compound 0.0316 µM, first compound 3.16 µM
[6] = second compound 0.0316 µM, first compound 10 µM
[7] = second compound 0.1 µM, first compound 0.0316 µM
[8] = second compound 0.1 µM, first compound 0.1 µM
[9] = second compound 0.1 µM, first compound 0.316 µM
[10] = second compound 0.1 µM, first compound 1 µM
[11] = second compound 0.1 µM, first compound 3.16 µM
[12] = second compound 0.1 µM, first compound 10 µM
[13] = second compound 0.316 µM, first compound 0.0316 µM
[14] = second compound 0.316 µM, first compound 0.1 µM
[15] = second compound 0.316 µM, first compound 0.316 µM
[16] = second compound 0.316 µM, first compound 1 µM
[17] = second compound 0.316 µM, first compound 3.16 µM
[18] = second compound 0.316 µM, first compound 10 µM
[19] = second compound 1 µM, first compound 0.0316 µM
[20] = second compound 1 µM, first compound 0.1 µM
[21] = second compound 1 µM, first compound 0.316 µM
[22] = second compound 1 µM, first compound 1 µM
[23] = second compound 1 µM, first compound 3.16 µM
[24] = second compound 1 µM, first compound 10 µM
[25] = second compound 3.16 µM, first compound 0.0316 µM
[26] = second compound 3.16 µM, first compound 0.1 µM
[27] = second compound 3.16 µM, first compound 0.316 µM
[28] = second compound 3.16 µM, first compound 1 µM
[29] = second compound 3.16 µM, first compound 3.16 µM
[30] = second compound 3.16 µM, first compound 10 µM
[31] = second compound 10 µM, first compound 0.0316 µM
[32] = second compound 10 µM, first compound 0.1 µM
[33] = second compound 10 µM, first compound 0.316 µM
[34] = second compound 10 µM, first compound 1 µM
[35] = second compound 10 µM, first compound 3.16 µM
[36] = second compound 10 µM, first compound 10 µM
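Also: spheroids exposed to agents for seven days before readout.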
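For viability, T/C in this document: 100% = DMSO vehicle control viability.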

Work on `C=CC(=O)N1CCN(c2nc(=O)n(-c3c(C)ccnc3C(C)C)c3nc(-c4c(O)cccc4F)c(F)cc23)C(C)C1` (centres undefined) + CN1CCN(c2cc(C(=O)Nc3cc4cc(-c5cnn(C)c5)ccc4cn3)ccn2)CC1 yielded an IC50 (second compound 0.0316 µM) of over 10000 nM, an IC50 (second compound 0.1 µM) of over 10000 nM and an IC50 (second compound 0.316 µM) of under 31.6 nM. The IC50 (second compound 1 µM) was under 31.6 nM, the IC50 (second compound 3.16 µM) was under 31.6 nM and the IC50 (second compound 10 µM) was under 31.6 nM. It also gave a viability, T/C [1] of 104%, a viability, T/C [2] of 89.4% and a viability, T/C [3] of 110%. For the same molecule, the viability, T/C [4] was 113%, the viability, T/C [5] was 132% and the viability, T/C [6] was 140%. For the same molecule, the viability, T/C [7] was 51.7%, the viability, T/C [8] was 65.7% and the viability, T/C [9] was 77.1%. For the same molecule, the viability, T/C [10] was 81.3%, the viability, T/C [11] was 86.2% and the viability, T/C [12] was 71.4%. For the same molecule, the viability, T/C [13] was 32.5%, the viability, T/C [14] was 38.2% and the viability, T/C [15] was 41.5%. It also gave a viability, T/C [16] of 37.5%, a viability, T/C [17] of 51% and a viability, T/C [18] of 31.4%. For the same molecule, the viability, T/C [19] was 6.64%, the viability, T/C [20] was 5.37% and the viability, T/C [21] was 5.91%. It also gave a viability, T/C [22] of 5.6%, a viability, T/C [23] of 8.96% and a viability, T/C [24] of 6.5%. For the same molecule, the viability, T/C [25] was 9.3%, the viability, T/C [26] was 9.76% and the viability, T/C [27] was 6.13%. For the same molecule, the viability, T/C [28] was 4.78%, the viability, T/C [29] was 5.85% and the viability, T/C [30] was 4.66%. It also gave a viability, T/C [31] of 2.59%, a viability, T/C [32] of 1.73% and a viability, T/C [33] of 2.2%. The viability, T/C [34] was 1.51%, the viability, T/C [35] was 4.91% and the viability, T/C [36] was 3.2%.

`COC1C=CCC(C)C(C)S(=O)(=O)NC(=O)c2ccc3c(c2)N(CC2CCC21)CC1(CCCc2cc(Cl)ccc21)CO3` (centres undefined) + CN1CCN(c2cc(C(=O)Nc3cc4cc(-c5cnn(C)c5)ccc4cn3)ccn2)CC1 gave an IC50 (second compound 0.0316 µM) of 1750 nM, an IC50 (second compound 0.1 µM) of 773 nM and an IC50 (second compound 0.316 µM) of under 31.6 nM. For the same molecule, the IC50 (second compound 1 µM) was under 31.6 nM, the IC50 (second compound 3.16 µM) was under 31.6 nM and the IC50 (second compound 10 µM) was under 31.6 nM. The viability, T/C [1] was 95.5%, the viability, T/C [2] was 89.9% and the viability, T/C [3] was 83.1%. It also gave a viability, T/C [4] of 51.5%, a viability, T/C [5] of 55% and a viability, T/C [6] of 40.1%. For the same molecule, the viability, T/C [7] was 85%, the viability, T/C [8] was 68.4% and the viability, T/C [9] was 63.3%. The viability, T/C [10] was 40.8%, the viability, T/C [11] was 46.4% and the viability, T/C [12] was 43.6%. For the same molecule, the viability, T/C [13] was 36.8%, the viability, T/C [14] was 34% and the viability, T/C [15] was 30.2%. For the same molecule, the viability, T/C [16] was 20.7%, the viability, T/C [17] was 13.6% and the viability, T/C [18] was 13.3%. For the same molecule, the viability, T/C [19] was 7.48%, the viability, T/C [20] was 5.89% and the viability, T/C [21] was 7.05%. For the same molecule, the viability, T/C [22] was 7.13%, the viability, T/C [23] was 5.61% and the viability, T/C [24] was 7.24%. The viability, T/C [25] was 5.37%, the viability, T/C [26] was 6.94% and the viability, T/C [27] was 7.7%. For the same molecule, the viability, T/C [28] was 7.72%, the viability, T/C [29] was 7.14% and the viability, T/C [30] was 6.03%. The viability, T/C [31] was 3.03%, the viability, T/C [32] was 1.85% and the viability, T/C [33] was 2.06%. It also gave a viability, T/C [34] of 6.57%, a viability, T/C [35] of 2.43% and a viability, T/C [36] of 1.39%.

Source: PubChem BioAssay AID2060611 (Molecular Pharmacology Branch, DTP, NCI, 2025)
